Experimental data: article PMC11818225, “Multifaceted Sulfonamide-Derived Thiosemicarbazones: Combining Metal Chelation and Carbonic Anhydrases Inhibition in Anticancer Therapy” (International Journal of Molecular Sciences, 2025)

Legend:
[1] = test system: WiDr (colon); assay: Antiproliferative SBR assay (NCI protocol), WiDr; format: cell-based, human; settings: 48 h exposure, n = 3, mean ± SD, multidrug-resistant line
Source text: (§1) The latter two represent multidrug-resistant cell lines.

[2] = test system: SW1573 (non-small cell lung)
Method: The potential antiproliferative activity of sulfonamides synthesized in this study was evaluated in vitro using the SBR assay, following the US NCI protocol. A panel of six tumor cell lines was employed: A549 (non-small cell lung), HBL-100 (breast), HeLa (cervix), SW1573 (non-small cell lung), T-47D (breast), and WiDr (colon). The latter two represent multidrug-resistant cell lines.
Cells were maintained in culture in 60 mm cell culture dishes in growth medium (10 mL) and passaged twice weekly.
The antiproliferative activity of compounds was tested using our implementation of the protocol of the National Cancer Institute (NCI) of the USA. The following seeding densities (cells per well) were used: 2500 (A549, HBL-100, HeLa, and SW1573) and 5000 (T-47D and WiDr). Stock solutions of inhibitors (40 mM) were prepared in pure DMSO (400 times the maximum test concentration).

[3] = test system: HBL-100 (breast); assay: Antiproliferative SBR assay (NCI protocol), HBL-100; format: cell-based, human; settings: 48 h exposure, n = 3, mean ± SD
Source text: as §1

[4] = test system: A549 (non-small cell lung); assay: Antiproliferative SBR assay (NCI protocol), A549; format: cell-based, human; settings: 48 h exposure, n = 3, mean ± SD
Source text: as §1

[5] = test system: HeLa (cervix); assay: Antiproliferative SBR assay (NCI protocol), HeLa; format: cell-based, human; settings: 48 h exposure, n = 3, mean ± SD
Source text: as §1

[6] = test system: T-47D (breast); assay: Antiproliferative SBR assay (NCI protocol), T-47D; format: cell-based, human; settings: 48 h exposure, n = 3, mean ± SD, multidrug-resistant line
Source text: as §1

[7] = molecular target: human CA XII (Homo sapiens, UniProt O43570); assay: Stopped-flow CO2 hydrase assay, CA XII; settings: for Selectivity Ratio I/XII: Ki CA I / Ki CA XII; for Selectivity Ratio II/XII: Ki CA II / Ki CA XII
[8] = molecular target: human CA II (Homo sapiens, UniProt P00918); assay: Stopped-flow CO2 hydrase assay, CA II
[9] = molecular target: human CA IX (Homo sapiens, UniProt Q16790); assay: Stopped-flow CO2 hydrase assay, CA IX; settings: for Selectivity Ratio I/IX: Ki CA I / Ki CA IX; for Selectivity Ratio II/IX: Ki CA II / Ki CA IX
[10] = molecular target: human CA I (Homo sapiens, UniProt P00915); assay: Stopped-flow CO2 hydrase assay, CA I
Chain of human CA I (P00915 whole entry): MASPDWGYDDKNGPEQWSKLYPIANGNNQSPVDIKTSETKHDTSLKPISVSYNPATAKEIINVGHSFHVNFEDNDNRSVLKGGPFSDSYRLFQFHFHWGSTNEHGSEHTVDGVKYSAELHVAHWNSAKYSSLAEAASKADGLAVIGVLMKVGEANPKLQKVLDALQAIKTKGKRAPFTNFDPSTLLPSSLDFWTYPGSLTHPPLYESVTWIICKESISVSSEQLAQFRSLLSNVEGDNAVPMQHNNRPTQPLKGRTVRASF

Chain of human CA XII (O43570 25-354): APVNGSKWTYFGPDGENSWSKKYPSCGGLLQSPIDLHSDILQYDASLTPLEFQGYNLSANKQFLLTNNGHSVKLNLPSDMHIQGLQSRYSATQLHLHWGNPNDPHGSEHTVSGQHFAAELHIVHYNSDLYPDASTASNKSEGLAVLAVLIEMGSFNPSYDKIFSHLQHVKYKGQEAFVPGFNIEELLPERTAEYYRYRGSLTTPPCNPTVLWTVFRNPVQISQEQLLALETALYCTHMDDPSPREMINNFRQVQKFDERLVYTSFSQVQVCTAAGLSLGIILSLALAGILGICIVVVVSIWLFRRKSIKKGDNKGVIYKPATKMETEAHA

Row | Structure (SMILES) | GI50 ([1]; Homo sapiens, WiDr) [µM] | GI50 [2] [µM] | GI50 ([3]; Homo sapiens, HBL-100) [µM] | GI50 ([4]; Homo sapiens, A549) [µM] | GI50 ([5]; Homo sapiens, HeLa) [µM] | GI50 ([6]; Homo sapiens, T47D) [µM] | Ki [7] [µM] | Selectivity Ratio I/XII [7] | Selectivity Ratio II/XII [7] | Ki [8] [µM] | Ki [9] [µM] | Selectivity Ratio I/IX [9] | Selectivity Ratio II/IX [9] | Ki [10] [µM] | GI50 [1] [µM] | GI50 [3] [µM] | GI50 [4] [µM] | GI50 [5] [µM] | GI50 [6] [µM]
1 | NS(=O)(=O)c1cccc(NC(=S)N/N=C/c2ccc(F)cc2)c1 [Compound 4i, 1-(4′-Fluorophenylmethylene)-4-(3″-sulfonamidophenyl)-3-thiosemicarbazone] | 79 ± 29 | > 100 | > 100 | 83 ± 16 | > 100 | > 100 |  |  |  |  |  |  |  |  |  |  |  |  | 
2 | COc1ccc(/C=N/NC(=S)Nc2cccc(S(N)(=O)=O)c2)cc1 [Compound 4h, 1-(4′-Methoxyphenylmethylene)-4-(3″-sulfonamidophenyl)-3-thiosemicarbazone] | > 100 | > 100 | > 100 | > 100 | > 100 | > 100 |  |  |  |  |  |  |  |  |  |  |  |  | 
3 | NS(=O)(=O)c1ccc(CCNC(=S)N/N=C/c2ccc(Br)cc2)cc1 [Compound 4p, 1-(4′-Bromophenylmethylene)-4-[2″-(4‴-sulfonamido)phenyl]ethyl-3-thiosemicarbazone] | 58 ± 9 | 53 ± 17 | 42 ± 8 | 21 ± 4 | 31 ± 9 | 37 ± 8 | 0.123 | 49.5 | 6.6 | 0.813 | 0.499 | 12.2 | 1.6 | 6.09 |  |  |  |  | 
4 | COc1ccc(/C=N/NC(=S)Nc2ccc(S(N)(=O)=O)cc2)cc1 [Compound 4b, 1-(4′-Methoxyphenylmethylene)-4-(4″-sulfonamidophenyl)-3-thiosemicarbazone] | > 100 | > 100 | > 100 | > 100 | 64 ± 23 | > 100 |  |  |  |  |  |  |  |  |  |  |  |  | 
5 | NNC(=S)Nc1cccc(S(N)(=O)=O)c1 [Compound 3b, 4-N-(3′-Sulfonamidophenyl)-3-thiosemicarbazide] | > 100 | > 100 | > 100 | > 100 | > 100 | > 100 | 0.116 | 12.6 | 3.8 | 0.439 | 0.185 | 7.9 | 2.4 | 1.46 |  |  |  |  | 
6 | NS(=O)(=O)c1ccc(NC(=S)N/N=C/c2ccc(Cl)cc2)cc1 [Compound 4d, 1-(4′-Chlorophenylmethylene)-4-(4″-sulfonamidophenyl)-3-thiosemicarbazone] | > 100 | > 100 | > 100 | > 100 | > 100 | > 100 |  |  |  |  |  |  |  |  |  |  |  |  | 
7 | NS(=O)(=O)c1cccc(NC(=S)N/N=C/c2ccc(Cl)cc2)c1 [Compound 4j, 1-(4′-Chlorophenylmethylene)-4-(3″-sulfonamidophenyl)-3-thiosemicarbazone] | 24 ± 8 | 36 ± 4 | 42 ± 15 | 22 ± 4 | 38 ± 3 | 59 ± 16 |  |  |  |  |  |  |  |  |  |  |  |  | 
8 | NS(=O)(=O)c1cccc(NC(=S)N/N=C/c2ccc(Br)cc2)c1 [Compound 4k, 1-(4′-Bromophenylmethylene)-4-(3″-sulfonamidophenyl)-3-thiosemicarbazone] | > 100 | 46 ± 1 | 40 ± 1 | 19 ± 6 | 45 ± 5 | > 100 |  |  |  |  |  |  |  |  |  |  |  |  | 
9 | NS(=O)(=O)c1ccc(CCNC(=S)N/N=C/c2ccc(F)cc2)cc1 [Compound 4n, 1-(4′-Fluorophenylmethylene)-4-[2″-(4‴-sulfonamido)phenyl]ethyl-3-thiosemicarbazone] | > 100 | > 100 | > 100 | > 100 | > 100 | > 100 | 0.0485 | 51.2 | 12.2 | 0.59 | 0.3 | 8.3 | 2.0 | 2.49 |  |  |  |  | 
10 | NS(=O)(=O)c1ccc(NC(=S)N/N=C/c2ccc(Br)cc2)cc1 [Compound 4e, 1-(4′-Bromophenylmethylene)-4-(4″-sulfonamidophenyl)-3-thiosemicarbazone] | 62 ± 12 | 22 ± 1 | 24 ± 2 | 23 ± 6 | 18 ± 1 | 36 ± 1 |  |  |  |  |  |  |  |  |  |  |  |  | 
11 | NS(=O)(=O)c1cccc(NC(=S)N/N=C/c2ccccc2)c1 [Compound 4g, 1-Phenylmethylene-4-(3″-sulfonamidophenyl)-3-thiosemicarbazone] | 62 ± 10 | 70 ± 1 | > 100 | 51 ± 10 | 61 ± 6 | 83 ± 10 |  |  |  |  |  |  |  |  |  |  |  |  | 
12 | NNC(=S)NCCc1ccc(S(N)(=O)=O)cc1 [Compound 3c, 4-N-[2′-(4″-Sulfonamido)phenyl]ethyl-3-thiosemicarbazide] | > 100 | > 100 | > 100 | > 100 | > 100 | > 100 | 0.00502 | 15.7 | 1.7 | 0.00851 | 0.013 | 6.1 | 0.65 | 0.079 |  |  |  |  | 
13 | O=c1[nH]cc(F)c(=O)[nH]1 [5-Fluorouracil, reference compound] | 49 ± 7 | 3.3 ± 1.2 | 4.4 ± 0.7 | 2.2 ± 0.3 | 16 ± 5 | 43 ± 16 |  |  |  |  |  |  |  |  |  |  |  |  | 
14 | NS(=O)(=O)c1ccc(CCNC(=S)N/N=C/c2ccc(Cl)cc2)cc1 [Compound 4o, 1-(4′-Chlorophenylmethylene)-4-[2″-(4‴-sulfonamido)pheny]ethyl-3-thiosemicarbazone] | > 100 | 73 ± 38 | 76 ± 32 | 62 ± 6 | 45 ± 16 | > 100 | 0.143 | 43.4 |  | 0.773 | 0.408 | 15.2 | 1.9 | 6.22 |  |  |  |  | 
15 | [NH2][Pt]([NH2])([Cl])[Cl] [CDDP, cisplatin, reference compound] |  | 2.7 ± 0.4 |  |  |  |  |  |  |  |  |  |  |  |  | 26 ± 4 | 1.9 ± 0.2 | 4.9 ± 0.2 | 1.8 ± 0.5 | 17 ± 3
16 | NNC(=S)Nc1ccc(S(N)(=O)=O)cc1 [Compound 3a, 4-N-(4′-Sulfonamidophenyl)-3-thiosemicarbazide] | > 100 | > 100 | > 100 | > 100 | > 100 | > 100 |  |  |  |  |  |  |  |  |  |  |  |  | 
17 | NS(=O)(=O)c1ccc(NC(=S)N/N=C/c2ccc(F)cc2)cc1 [Compound 4c, 1-(4′-Fluorophenylmethylene)-4-(4″-sulfonamidophenyl)-3-thiosemicarbazone] | 24 ± 4 | 6 ± 0.4 | 28 ± 1 | 25 ± 5 | 7.9 ± 1.1 | 17 ± 1 |  |  |  |  |  |  |  |  |  |  |  |  | 
18 | NS(=O)(=O)c1ccc(NC(=S)N/N=C/c2ccc([N+](=O)[O-])cc2)cc1 [Compound 4f, 1-(4′-Nitrophenylmethylene)-4-(4″-sulfonamidophenyl)-3-thiosemicarbazone] | > 100 | > 100 | > 100 | > 100 | > 100 | > 100 |  |  |  |  |  |  |  |  |  |  |  |  | 
